According to patent US8846933B2, “N-link hydroxamic acid derivatives useful as antibacterial agents” (Pfizer Inc., priority 2009, dated 2014):

What was measured:
Assay type in all cases: cell-based
[1] = system: Acinetobacter baumanii/haemolyticus: Multidrug-resistant clinical isolate (AB-3167); experiment: MIC determination (CLSI), strain AB-3167; details: unit assumed
How it was run: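 MIC measured by broth dilution per CLSI guidelines (M7-A7, M100-S18) against multidrug-resistant clinical isolate AB-3167 of Acinetobacter baumanii/haemolyticus.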

[2] = system: Escherichia coli EC-1: VOGEL, mouse virulent; experiment: MIC determination (CLSI), strain EC-1; details: Escherichia coli EC-1, VOGEL, mouse virulent; unit assumed
How it was run: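 The mouse-virulent VOGEL isolate of E. coli, EC-1, served as test organism. Minimum inhibitory concentration was measured by CLSI dilution methodology (M7-A7; M100-S18 standards).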

[3] = system: Pseudomonas aeruginosa UI-18: Wild-type (PA-7); experiment: MIC determination (CLSI), strain PA-7; details: Pseudomonas aeruginosa UI-18, wild-type; unit assumed
How it was run: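 MIC determined by broth dilution per CLSI M7-A7 guidelines with M100-S18 interpretive standards. Test organism: wild-type Pseudomonas aeruginosa UI-18, designated PA-7.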

| Compound | AB-3167 (MIC) [1] | EC-1 (MIC) [2] | PA-7 (MIC) [3] |
| --- | --- | --- | --- |
| C[C@@](CCn1ccc(C#Cc2ccccc2)cc1=O)(C(=O)NO)S(C)(=O)=O [Example 65, (2R)-N-Hydroxy-2-methyl-2-(methylsulfonyl)-4-[2-oxo-4-(phenylethynyl)pyridin-1(2H)-yl]butanamide] | 64 µg/mL | 0.125 µg/mL | 0.5 µg/mL |
| CC(CCn1ccc(OCCCC2CCCCC2)cc1=O)(C(=O)NO)S(C)(=O)=O (stereo not drawn) [Example 66, 4-[4-(3-Cyclohexylpropoxy)-2-oxopyridin-1(2H)-yl]-N-hydroxy-2-methyl-2-(methylsulfonyl)butanamide] | 2 µg/mL | 1 µg/mL | 8 µg/mL |
| C[C@@](CCn1ccc(C2=CCN(c3ncccn3)CC2)cc1=O)(C(=O)NO)S(C)(=O)=O [Example 67, (2R)-N-Hydroxy-2-methyl-2-(methylsulfonyl)-4-(2-oxo-1′-pyrimidin-2-yl-1′,2′,3′,6′-tetrahydro-4,4′-bipyridin-1(2H)-yl)butanamide] | > 64 µg/mL | 8 µg/mL | 8 µg/mL |
| C[C@@](CCn1ccc(-c2ccc3ccccc3c2)cc1=O)(C(=O)NO)S(C)(=O)=O [Example 68-A, (2R)-N-hydroxy-2-methyl-2-(methylsulfonyl)-4-[4-(2-naphthyl)-2-oxopyridin-1(2H)-yl]butanamide] | > 64 µg/mL | 0.06 µg/mL | 0.5 µg/mL |
| C[C@@](CCn1ccc(-c2ccc(Cl)c(F)c2)cc1=O)(C(=O)NO)S(C)(=O)=O [Example 68-B, (2R)-4-[4-(4-chloro-3-fluorophenyl)-2-oxopyridin-1(2H)-yl]-N-hydroxy-2-methyl-2-(methylsulfonyl)butanamide] | > 64 µg/mL | 0.5 µg/mL | 0.5 µg/mL |
| C[C@@](CCn1ccc(-c2ccc(Cl)c(Cl)c2)cc1=O)(C(=O)NO)S(C)(=O)=O [Example 68-C, (2R)-4-[4-(3,4-dichlorophenyl)-2-oxopyridin-1(2H)-yl]-N-hydroxy-2-methyl-2-(methylsulfonyl)butanamide] | > 64 µg/mL | 0.125 µg/mL | 0.5 µg/mL |
| C[C@@](CCn1ccc(-c2ccc(-c3nccs3)cc2)cc1=O)(C(=O)NO)S(C)(=O)=O [Example 68-D, (2R)-N-hydroxy-2-methyl-2-(methylsulfonyl)-4-{2-oxo-4-[4-(1,3-thiazol-2-yl)phenyl]pyridin-1(2H)-yl}butanamide] | > 64 µg/mL | 0.06 µg/mL | 0.5 µg/mL |
| Cc1cccc(-c2ccn(CC[C@](C)(C(=O)NO)S(C)(=O)=O)c(=O)c2)c1Cl [Example 68-E, (2R)-4-[4-(2-chloro-3-methylphenyl)-2-oxopyridin-1(2H)-yl]-N-hydroxy-2-methyl-2-(methylsulfonyl)butanamide] | 64 µg/mL | 0.25 µg/mL | 0.5 µg/mL |
| C[C@@](CCn1ccc(-c2ccc(-c3ccon3)cc2)cc1=O)(C(=O)NO)S(C)(=O)=O [Example 68-F, (2R)-N-hydroxy-4-[4-(4-isoxazol-3-ylphenyl)-2-oxopyridin-1(2H)-yl]-2-methyl-2-(methylsulfonyl)butanamide] | > 64 µg/mL | 0.25 µg/mL | 0.5 µg/mL |
| CCC(=O)c1ccc(-c2ccn(CC[C@](C)(C(=O)NO)S(C)(=O)=O)c(=O)c2)cc1 [Example 68-G, (2R)-N-hydroxy-2-methyl-2-(methylsulfonyl)-4-[2-oxo-4-(4-propionylphenyl)pyridin-1(2H)-yl]butanamide] | > 64 µg/mL | 0.5 µg/mL | 1 µg/mL |
| C[C@@](CCn1ccc(-c2ccc([C@H]3C[C@@](C)(O)C3)cc2)cc1=O)(C(=O)NO)S(C)(=O)=O [Example 68-H, (2R)-N-hydroxy-4-{4-[4-(cis-3-hydroxy-3-methylcyclobutyl)phenyl]-2-oxopyridin-1(2H)-yl}-2-methyl-2-(methylsulfonyl)butanamide] | > 64 µg/mL | 2 µg/mL | 1 µg/mL |
| C[C@@](CCn1ccc(-c2ccc(C(F)(F)F)cc2)cc1=O)(C(=O)NO)S(C)(=O)=O [Example 68-I, (2R)-N-hydroxy-2-methyl-2-(methylsulfonyl)-4-{2-oxo-4-[4-(trifluoromethyl)phenyl]pyridin-1(2H)-yl}butanamide] | > 64 µg/mL | 1 µg/mL | 1 µg/mL |
| Cc1c(-c2ccc(-n3nccn3)cc2)ccn(CC[C@](C)(C(=O)NO)S(C)(=O)=O)c1=O [Example 68-J, (2R)-N-hydroxy-2-methyl-4-{3-methyl-2-oxo-4-[4-(2H-1,2,3-triazol-2-yl)phenyl]pyridin-1(2H)-yl}-2-(methylsulfonyl)butanamide] | > 64 µg/mL | 0.125 µg/mL | 1 µg/mL |
| C[C@@](CCn1ccc(C2=CCCCC2)cc1=O)(C(=O)NO)S(C)(=O)=O [Example 68-K, (2R)-4-(4-cyclohex-1-en-1-yl-2-oxopyridin-1(2H)-yl)-N-hydroxy-2-methyl-2-(methylsulfonyl)butanamide] | > 64 µg/mL | 4 µg/mL | 1 µg/mL |
| C[C@@](CCn1ccc(C2=CCCCCC2)cc1=O)(C(=O)NO)S(C)(=O)=O [Example 68-L, (2R)-4-(4-cyclohept-1-en-1-yl-2-oxopyridin-1(2H)-yl)-N-hydroxy-2-methyl-2-(methylsulfonyl)butanamide] | > 64 µg/mL | 2 µg/mL | 1 µg/mL |
| C[C@@](CCn1ccc(-c2ccc(CC3CC(O)C3)cc2)cc1=O)(C(=O)NO)S(C)(=O)=O (stereo partly drawn) [Example 68-M, (2R)-N-hydroxy-4-[4-{4-[(3-hydroxycyclobutyl)methyl]phenyl}-2-oxopyridin-1(2H)-yl]-2-methyl-2-(methylsulfonyl)butanamide] | > 64 µg/mL | 0.5 µg/mL | 2 µg/mL |
| C[C@H](O)c1ccc2cc(-c3ccn(CC[C@](C)(C(=O)NO)S(C)(=O)=O)c(=O)c3)ccc2c1 [Example 68-N, (2R)-N-hydroxy-4-[4-{6-[(1S)-1-hydroxyethyl]-2-naphthyl}-2-oxopyridin-1(2H)-yl]-2-methyl-2-(methylsulfonyl)butanamide] | > 64 µg/mL | 0.5 µg/mL | 2 µg/mL |
| CC(CCn1ccc(-c2ccc3c(c2)CCC(O)C3)cc1=O)(C(=O)NO)S(C)(=O)=O (stereo not drawn) [Example 68-O, N-hydroxy-4-[4-(6-hydroxy-5,6,7,8-tetrahydronaphthalen-2-yl)-2-oxopyridin-1(2H)-yl]-2-methyl-2-(methylsulfonyl)butanamide] | > 64 µg/mL | 16 µg/mL | 8 µg/mL |
| C[C@@](CCn1ccc(-c2ccc(-c3ccccc3)s2)cc1=O)(C(=O)NO)S(C)(=O)=O [Example 68-P, (2R)-N-hydroxy-2-methyl-2-(methylsulfonyl)-4-[2-oxo-4-(5-phenyl-2-thienyl)pyridin-1(2H)-yl]butanamide] | > 64 µg/mL | 0.06 µg/mL | 8 µg/mL |
| CC(O)c1ccc(-c2ccn(CCC(C)(C(=O)NO)S(C)(=O)=O)c(=O)c2)cc1 (stereo not drawn) [Example 68-Q, N-hydroxy-4-{4-[4-(1-hydroxyethyl)phenyl]-2-oxopyridin-1(2H)-yl}-2-methyl-2-(methylsulfonyl)butanamide] | > 64 µg/mL | 64 µg/mL | 16 µg/mL |
| Cn1c(-c2ccn(CCC(C)(C(=O)NO)S(C)(=O)=O)c(=O)c2)cc2ccccc21 (stereo not drawn) [Example 68-R, N-hydroxy-2-methyl-4-[4-(1-methyl-1H-indol-2-yl)-2-oxopyridin-1(2H)-yl]-2-(methylsulfonyl)butanamide] | > 64 µg/mL | 4 µg/mL | 8 µg/mL |
| CC(CCn1ccc(OCCC2CCCC2)cc1=O)(C(=O)NO)S(C)(=O)=O (stereo not drawn) [Example 68-S, 4-[4-(2-cyclopentylethoxy)-2-oxopyridin-1(2H)-yl]-N-hydroxy-2-methyl-2-(methylsulfonyl)butanamide] | 64 µg/mL | 16 µg/mL | 32 µg/mL |
| CC(CCn1ccc(OCCc2ccccc2)cc1=O)(C(=O)NO)S(C)(=O)=O (stereo not drawn) [Example 68-U, N-hydroxy-2-methyl-2-(methylsulfonyl)-4-[2-oxo-4-(2-phenylethoxy)pyridin-1(2H)-yl]butanamide] | > 64 µg/mL | 32 µg/mL | 64 µg/mL |
| CC(=O)c1ccc(-c2ccn(CCC(C)(C(=O)NO)S(C)(=O)=O)c(=O)c2)cc1 (stereo not drawn) [Example 68-V, 4-[4-(4-acetylphenyl)-2-oxopyridin-1(2H)-yl]-N-hydroxy-2-methyl-2-(methylsulfonyl)butanamide] | > 64 µg/mL | 4 µg/mL | 4 µg/mL |
